# ChEMBL document CHEMBL3286296, “Design and synthesis of phenylisoxazole derivatives as novel human acrosin inhibitors” (Bioorg Med Chem Lett, 2014)
# Biological target: T1, Acrosin (Homo sapiens, UniProt P10323)
# Assay: Inhibition of human acrosin using N-alpha-benzoyl-L-arginine p-nitroanilide as substrate after 3 hrs by spectrophotometry
# T1 sequence (P10323 20-42 limits assumed): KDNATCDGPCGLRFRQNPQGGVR
# T1 sequence (P10323 43-343 limits assumed): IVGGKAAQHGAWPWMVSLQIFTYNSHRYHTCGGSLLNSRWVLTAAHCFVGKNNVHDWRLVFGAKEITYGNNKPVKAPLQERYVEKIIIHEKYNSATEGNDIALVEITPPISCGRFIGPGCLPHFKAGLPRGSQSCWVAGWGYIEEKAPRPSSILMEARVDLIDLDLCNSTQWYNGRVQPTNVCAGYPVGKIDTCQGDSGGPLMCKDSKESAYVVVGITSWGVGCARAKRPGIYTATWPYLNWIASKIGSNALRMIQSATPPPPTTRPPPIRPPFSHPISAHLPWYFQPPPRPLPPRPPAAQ
row,IC50,SMILES
1,460 µM,CCOC(=O)c1cc(-c2ccc(NC(=O)c3ccccc3)cc2)on1
2,14.4 µM,Cc1ccccc1NC(=O)c1cc(-c2ccc(NC(=N)N)cc2)on1
3,25.4 µM,N=C(N)Nc1ccc(-c2cc(C(=O)Nc3cccc(Cl)c3)no2)cc1
4,2.3 µM,COc1ccc(OC)c(NC(=O)c2cc(-c3ccc(NC(=N)N)cc3)on2)c1
5,7.8 µM,CC(C)(C)c1ccc(NC(=O)c2cc(-c3ccc(NC(=N)N)cc3)on2)cc1
6,27.9 µM,N=C(N)Nc1ccc(-c2cc(C(=O)Nc3ccccc3Br)no2)cc1
7,9.3 µM,CCOC(=O)c1ccc(NC(=O)c2cc(-c3ccc(NC(=N)N)cc3)on2)cc1
8,6.6 µM,COc1cccc(NC(=O)c2cc(-c3ccc(NC(=N)N)cc3)on2)c1
9,29.9 µM,N=C(N)Nc1ccc(-c2cc(C(=O)Nc3cccc4ccccc34)no2)cc1
10,26.8 µM,N=C(N)Nc1ccc(-c2cc(C(=O)Nc3ccc(Cl)cc3)no2)cc1
11,5.7 µM,Cc1cccc(C)c1NC(=O)c1cc(-c2ccc(NC(=N)N)cc2)on1
12,20.3 µM,N=C(N)Nc1ccc(-c2cc(C(=O)Nc3ccc(C(F)(F)F)cc3)no2)cc1
13,60 µM,CCOC(=O)c1cc(-c2ccc(NC(=O)c3ccccc3Cl)cc2)on1
14,11.5 µM,Cc1cccc(NC(=O)c2cc(-c3ccc(NC(=N)N)cc3)on2)c1C
15,240 µM,CCOC(=O)c1cc(-c2ccc(NC(=O)c3ccc(Cl)c(Cl)c3)cc2)on1
16,6.4 µM,CCOc1ccc(NC(=O)c2cc(-c3ccc(NC(=N)N)cc3)on2)cc1
17,24.6 µM,N=C(N)Nc1ccc(-c2cc(C(=O)Nc3ccccc3)no2)cc1
18,140 µM,CCOC(=O)c1cc(-c2ccc(NC(=O)c3ccc(F)cc3)cc2)on1
19,14.4 µM,N=C(N)Nc1ccc(-c2cc(C(=O)Nc3cccc(Br)c3)no2)cc1
20,21.4 µM,Cc1ccnc(NC(=O)c2cc(-c3ccc(NC(=N)N)cc3)on2)c1
21,1.4 µM,COc1ccc(NC(=O)c2cc(-c3ccc(NC(=N)N)cc3)on2)c(OC)c1
22,20.5 µM,N=C(N)Nc1ccc(-c2cc(C(=O)Nc3ccc(F)cc3)no2)cc1
23,8.4 µM,COc1ccccc1NC(=O)c1cc(-c2ccc(NC(=N)N)cc2)on1
24,12.1 µM,Cc1cc(C)cc(NC(=O)c2cc(-c3ccc(NC(=N)N)cc3)on2)c1
25,9.4 µM,Cc1cccc(NC(=O)c2cc(-c3ccc(NC(=N)N)cc3)on2)c1
26,10.1 µM,Cc1ccc(NC(=O)c2cc(-c3ccc(NC(=N)N)cc3)on2)cc1
27,380 µM,CCOC(=O)c1cc(-c2ccc(NC(=O)c3ccc(Cl)cc3)cc2)on1
28,23.9 µM,N#Cc1ccc(NC(=O)c2cc(-c3ccc(NC(=N)N)cc3)on2)cc1

row,SMILES,IC50
1,CC(C)NC(=O)c1cc(-c2ccc(NC(=N)N)cc2)on1,> 100 µM
2,CC(CO)NC(=O)c1cc(-c2ccc(NC(=N)N)cc2)on1 (configuration not stated),> 100 µM

# Test system: not listed separately
# Assay: Inhibition of pig trypsin
# Design: species or system Sus scrofa
row,IC50,SMILES
1,4200 µM,COc1ccc(NC(=O)c2cc(-c3ccc(NC(=N)N)cc3)on2)c(OC)c1

# Biological target: T1, Acrosin
# Assay: Ratio of ISO-1 IC50 to compound IC50 for human acrosin using N-alpha-benzoyl-L-arginine p-nitroanilide as substrate after 3 hrs by spectrophotometry
row,Ratio IC50,SMILES
1,6,CCOC(=O)c1cc(-c2ccc(NC(=O)c3ccccc3Cl)cc2)on1
